Structures are written as SMILES. In brackets after ≈: the same amount, converted by molar mass.

Holding throughout (format): functional
Test [1] deals with Enterococcus faecalis. Nature of the test: Minimum inhibitory concentration against growth of Enterococcus faecalis (ATCC 29212).
Test [2] relates to Staphylococcus aureus. Nature of the test: Minimum inhibitory concentration against growth of Methicillin resistant […] aureus.
For test [3], the system named is Enterococcus faecalis. Nature of the test: Minimum inhibitory concentration against growth of vancomycin-resistant Enterococcus faecalis (ATCC 51299).
Test [4] deals with Staphylococcus aureus. The test can be described thus: Minimum inhibitory concentration against growth of […] aureus (ATCC 29213).

Take `CC(C)C[C@@H](N)C(=O)N[C@H]1C(=O)N[C@@H](CC(N)=O)C(=O)N[C@H]2C(=O)N[C@H]3C(=O)N[C@H](C(=O)N[C@H](C(=O)NCC(=O)O)c4cc(O)cc(O)c4-c4cc3ccc4O)[C@H](O)c3ccc(c(Cl)c3)Oc3cc2cc(c3O[C@@H]2O[C@@H](CO)[C@@H](O)[C@H](O)[C@@H]2O[C@H]2C[C@](C)(Nc3ccc(-c4ccccc4)cc3)[C@H](O)[C@H](C)O2)Oc2ccc(cc2Cl)[C@H]1O`: the MIC – broadly, the least concentration at which growth counts as inhibited – in test [1] was 5 µg/mL (≈ 3.04 µM); in test [2] it was 5 µg/mL (≈ 3.04 µM); in test [3] it was > 10 µg/mL; in test [4], 5 µg/mL (≈ 3.04 µM).

In the case of `CCC(CC)N[C@H](CC(C)C)C(=O)N[C@H]1C(=O)N[C@@H](CC(N)=O)C(=O)N[C@H]2C(=O)N[C@H]3C(=O)N[C@H](C(=O)N[C@H](C(=O)NCC(=O)O)c4cc(O)cc(O)c4-c4cc3ccc4O)[C@H](O)c3ccc(c(Cl)c3)Oc3cc2cc(c3O[C@@H]2O[C@@H](CO)[C@@H](O)[C@H](O)[C@@H]2O[C@H]2C[C@](C)(Nc3ccc(Cl)cc3)[C@H](O)[C@H](C)O2)Oc2ccc(cc2Cl)[C@H]1O`, the MIC in test [1], in test [2], in test [3] and in test [4] was > 10 µg/mL each time.

For the compound `CN[C@H](CC(C)C)C(=O)N[C@H]1C(=O)N[C@@H](CC(N)=O)C(=O)N[C@H]2C(=O)N[C@H]3C(=O)N[C@H](C(=O)N[C@H](C(=O)O)c4cc(O)cc(O)c4-c4cc3ccc4O)[C@H](O)c3ccc(c(Cl)c3)Oc3cc2cc(c3O[C@@H]2O[C@H](CO)[C@@H](O)[C@H](O)[C@H]2O[C@H]2C[C@](C)(N)[C@H](O)[C@H](C)O2)Oc2ccc(cc2Cl)[C@H]1O` [VANCOMYCIN], the MIC was 2.5 µg/mL (≈ 1.73 µM) in test [1], 1.25 µg/mL (≈ 0.863 µM) in test [2], > 10 µg/mL in test [3] and 0.62 µg/mL (≈ 0.428 µM) in test [4].

Consider `C/C=C/CN[C@H](CC(C)C)C(=O)N[C@H]1C(=O)N[C@@H](CC(N)=O)C(=O)N[C@H]2C(=O)N[C@H]3C(=O)N[C@H](C(=O)N[C@H](C(=O)NCC(=O)O)c4cc(O)cc(O)c4-c4cc3ccc4O)[C@H](O)c3ccc(c(Cl)c3)Oc3cc2cc(c3O[C@@H]2O[C@@H](CO)[C@@H](O)[C@H](O)[C@@H]2O[C@H]2C[C@](C)(Nc3ccc(OC)cc3)[C@H](O)[C@H](C)O2)Oc2ccc(cc2Cl)[C@H]1O`, for which the MIC was > 10 µg/mL in test [1], 10 µg/mL (≈ 6.05 µM) in test [2], > 10 µg/mL in test [3] and 10 µg/mL (≈ 6.05 µM) in test [4].

For `C/C=C/CN(C/C=C/C)[C@H](CC(C)C)C(=O)N[C@H]1C(=O)N[C@@H](CC(N)=O)C(=O)N[C@H]2C(=O)N[C@H]3C(=O)N[C@H](C(=O)N[C@H](C(=O)NCC(=O)O)c4cc(O)cc(O)c4-c4cc3ccc4O)[C@H](O)c3ccc(c(Cl)c3)Oc3cc2cc(c3O[C@@H]2O[C@@H](CO)[C@@H](O)[C@H](O)[C@@H]2O[C@H]2C[C@](C)(Nc3ccc(Cl)cc3)[C@H](O)[C@H](C)O2)Oc2ccc(cc2Cl)[C@H]1O`, the MIC in test [1], in test [2], in test [3] and in test [4] was > 10 µg/mL each time.

On to `CC(C)C[C@H](C(=O)N[C@H]1C(=O)N[C@@H](CC(N)=O)C(=O)N[C@H]2C(=O)N[C@H]3C(=O)N[C@H](C(=O)N[C@H](C(=O)NCC(=O)O)c4cc(O)cc(O)c4-c4cc3ccc4O)[C@H](O)c3ccc(c(Cl)c3)Oc3cc2cc(c3O[C@@H]2O[C@@H](CO)[C@@H](O)[C@H](O)[C@@H]2O[C@H]2C[C@](C)(NC(=O)OCC3c4ccccc4-c4ccccc43)[C@H](O)[C@H](C)O2)Oc2ccc(cc2Cl)[C@H]1O)N(C)C(=O)OCC1c2ccccc2-c2ccccc21`, for which the MIC in test [1] is 10 µg/mL (≈ 5.13 µM); in test [2], 5 µg/mL (≈ 2.56 µM); in test [3] it was 5 µg/mL (≈ 2.56 µM); in test [4] it was > 10 µg/mL.

On to `CCCN(CCC)[C@H](CC(C)C)C(=O)N[C@H]1C(=O)N[C@@H](CC(N)=O)C(=O)N[C@H]2C(=O)N[C@H]3C(=O)N[C@H](C(=O)N[C@H](C(=O)NCC(=O)O)c4cc(O)cc(O)c4-c4cc3ccc4O)[C@H](O)c3ccc(c(Cl)c3)Oc3cc2cc(c3O[C@@H]2O[C@@H](CO)[C@@H](O)[C@H](O)[C@@H]2O[C@H]2C[C@](C)(Nc3ccc(-c4ccccc4)cc3)[C@H](O)[C@H](C)O2)Oc2ccc(cc2Cl)[C@H]1O`, for which the minimum inhibitory concentration (MIC) in test [1] is > 10 µg/mL; in test [2] it was 5 µg/mL (≈ 2.89 µM); in test [3] it was > 10 µg/mL; in test [4], 5 µg/mL (≈ 2.89 µM).

Consider `CC(C)C[C@@H](N)C(=O)N[C@H]1C(=O)N[C@@H](CC(N)=O)C(=O)N[C@H]2C(=O)N[C@H]3C(=O)N[C@H](C(=O)N[C@H](C(=O)NCC(=O)O)c4cc(O)cc(O)c4-c4cc3ccc4O)[C@H](O)c3ccc(c(Cl)c3)Oc3cc2cc(c3O[C@@H]2O[C@@H](CO)[C@@H](O)[C@H](O)[C@@H]2O[C@H]2C[C@](C)(Nc3ccc(F)cc3)[C@H](O)[C@H](C)O2)Oc2ccc(cc2Cl)[C@H]1O`, for which the MIC was 2.5 µg/mL (≈ 1.58 µM) in test [1], 2.5 µg/mL (≈ 1.58 µM) in test [2], > 10 µg/mL in test [3] and 2.5 µg/mL (≈ 1.58 µM) in test [4].

Turning to `CC(C)C[C@@H](NC(=O)OCC1c2ccccc2-c2ccccc21)C(=O)N[C@H]1C(=O)N[C@@H](CC(N)=O)C(=O)N[C@H]2C(=O)N[C@H]3C(=O)N[C@H](C(=O)N[C@H](C(=O)NCC(=O)O)c4cc(O)cc(O)c4-c4cc3ccc4O)[C@H](O)c3ccc(c(Cl)c3)Oc3cc2cc(c3O[C@@H]2O[C@@H](CO)[C@@H](O)[C@H](O)[C@@H]2O[C@H]2C[C@](C)(N)[C@H](O)[C@H](C)O2)Oc2ccc(cc2Cl)[C@H]1O`, the MIC in test [1] is 5 µg/mL (≈ 2.92 µM); in test [2], 5 µg/mL (≈ 2.92 µM); in test [3], > 10 µg/mL; in test [4] it was 1.25 µg/mL (≈ 0.729 µM).

`CCCN(CCC)[C@H](CC(C)C)C(=O)N[C@H]1C(=O)N[C@@H](CC(N)=O)C(=O)N[C@H]2C(=O)N[C@H]3C(=O)N[C@H](C(=O)N[C@H](C(=O)NCC(=O)O)c4cc(O)cc(O)c4-c4cc3ccc4O)[C@H](O)c3ccc(c(Cl)c3)Oc3cc2cc(c3O[C@@H]2O[C@@H](CO)[C@@H](O)[C@H](O)[C@@H]2O[C@H]2C[C@](C)(Nc3ccc(Cl)cc3)[C@H](O)[C@H](C)O2)Oc2ccc(cc2Cl)[C@H]1O`: the MIC in test [1] is > 10 µg/mL; in test [2], 5 µg/mL (≈ 2.96 µM); in test [3] it was > 10 µg/mL; in test [4] it was 5 µg/mL (≈ 2.96 µM).

Take `CCC(CC)N[C@H](CC(C)C)C(=O)N[C@H]1C(=O)N[C@@H](CC(N)=O)C(=O)N[C@H]2C(=O)N[C@H]3C(=O)N[C@H](C(=O)N[C@H](C(=O)NCC(=O)O)c4cc(O)cc(O)c4-c4cc3ccc4O)[C@H](O)c3ccc(c(Cl)c3)Oc3cc2cc(c3O[C@@H]2O[C@@H](CO)[C@@H](O)[C@H](O)[C@@H]2O[C@H]2C[C@](C)(N)[C@H](O)[C@H](C)O2)Oc2ccc(cc2Cl)[C@H]1O`: the MIC was > 10 µg/mL in test [1], 10 µg/mL (≈ 6.4 µM) in test [2], > 10 µg/mL in test [3] and 10 µg/mL (≈ 6.4 µM) in test [4].

The values above are taken from ChEMBL document CHEMBL1144385, “Solid-phase synthesis and antibacterial evaluations of N-demethylvancomycin derivatives” (2005).
